Reference: PubChem BioAssay AID248 (DTP/NCI, 2004)
Toxic doses and inconclusive results are not listed. Square brackets hold non-standard residues; d marks the D form. Peptide text beside a SMILES is read from it. ξ: configuration not given here. ξK = NCCCCC(N)C(=O)O

System: L1210 leukemia ip in BDF1 mice, survival T/C
Assay: NCI In Vivo Anticancer Drug Screen. Data for tumor model L1210 Leukemia (intraperitoneal) in B6D2F1 (BDF1) mice
Conditions: endpoint: mean survival time, higher = longer survival
Procedure: The antitumor activity of compounds was measured in mice bearing transplantable tumors. Survival or tumor size were measured and the results are expressed as the measurement made in the treated group (T) divided by the measurement made in the vehicle treated control group (C). The tumor model used in this assay is L1210 Leukemia (intraperitoneal) in B6D2F1 (BDF1) mice

[1] = dose: 100.0 mg/kg/injection, schedule: Q01DX009 (ip), vehicle: Klucel (hydroxypropylcellulose) (HPC)
[2] = dose: 100.0 mg/kg/injection, schedule: Q04DX003 (ip), vehicle: Klucel (hydroxypropylcellulose) (HPC)
[3] = dose: 200.0 mg/kg/injection, schedule: Q01DX009 (ip), vehicle: Klucel (hydroxypropylcellulose) (HPC)
[4] = dose: 200.0 mg/kg/injection, schedule: Q04DX003 (ip), vehicle: Klucel (hydroxypropylcellulose) (HPC)
[5] = dose: 400.0 mg/kg/injection, schedule: Q01DX009 (ip), vehicle: Klucel (hydroxypropylcellulose) (HPC)
[6] = dose: 400.0 mg/kg/injection, schedule: Q04DX003 (ip), vehicle: Klucel (hydroxypropylcellulose) (HPC)
[7] = dose: 100.0 mg/kg/injection, schedule: Q04DX003 (ip), vehicle: saline
[8] = dose: 200.0 mg/kg/injection, schedule: Q04DX003 (ip), vehicle: saline
[9] = dose: 100.0 mg/kg/injection, schedule: Q04DX003 (ip), vehicle: other

## O=C1OC(c2ccccc2)(c2ccccc2)c2ccccc21
[1]
  T/C: 93 % of control
[2]
  T/C: 107 % of control
[3]
  T/C: 101 % of control
[4]
  T/C: 102 % of control
[5]
  T/C: 88 % of control
[6]
  T/C: 100 % of control

## CCOC(=O)c1ccc(NC(=O)Sc2cccc(C)c2)cc1
[2]
  T/C: 93 % of control
[4]
  T/C: 97 % of control
[6]
  T/C: 96 % of control

## Nc1n[nH]c2ccccc12
dose: 50.0 mg/kg/injection, schedule: Q04DX002 (ip), vehicle: gum acacia
  T/C: 104 % of control
dose: 100.0 mg/kg/injection, schedule: Q04DX002 (ip), vehicle: gum acacia
  T/C: 107 % of control
dose: 200.0 mg/kg/injection, schedule: Q04DX002 (ip), vehicle: gum acacia
  T/C: 100 % of control

## NC(N)=N/N=C\c1c[nH]c2ccccc12
dose: 15.0 mg/kg/injection, schedule: Q01DX Z (ip), vehicle: carboxymethylcellulose (CMC)
  T/C: 102 % of control
dose: 30.0 mg/kg/injection, schedule: Q01DX Z (ip), vehicle: carboxymethylcellulose (CMC)
  T/C: 103 % of control
dose: 30.0 mg/kg/injection, schedule: Q01DX Z (oral), vehicle: carboxymethylcellulose (CMC)
  T/C: 89 % of control
dose: 60.0 mg/kg/injection, schedule: Q01DX Z (ip), vehicle: carboxymethylcellulose (CMC)
  T/C: 100 % of control
dose: 60.0 mg/kg/injection, schedule: Q01DX Z (oral), vehicle: carboxymethylcellulose (CMC)
  T/C: 92 % of control
dose: 120.0 mg/kg/injection, schedule: Q01DX Z (oral), vehicle: carboxymethylcellulose (CMC)
  T/C: 96 % of control
dose: 240.0 mg/kg/injection, schedule: Q01DX Z (oral), vehicle: carboxymethylcellulose (CMC)
  T/C: 96 % of control

## Oc1c(-c2ccccc2)c(-c2ccccc2)cc(-c2ccccc2)c1-c1ccccc1
dose: 100.0 mg/kg/injection, schedule: Q01DX001 (ip), vehicle: saline with Tween-80
  T/C: 102 % of control
dose: 200.0 mg/kg/injection, schedule: Q01DX001 (ip), vehicle: saline with Tween-80
  T/C: 94 % of control
dose: 400.0 mg/kg/injection, schedule: Q01DX001 (ip), vehicle: saline with Tween-80
  T/C: 88 % of control

## CC(C)c1cc(CN(C)C)cc(C(C)C)c1O
[2]
  T/C: 95 % of control
[4]
  T/C: 102 % of control

## CSc1ccc(NC(=O)Nc2cccc(C(C)=O)c2)cc1
[1]
  T/C: 97 % of control
[3]
  T/C: 94 % of control
[5]
  T/C: 91 % of control

## O=C(O)CN(Cc1ccccc1)C(=O)COc1ccc(Cl)c(Cl)c1
dose: 100.0 mg/kg/injection, schedule: Q04DX003 (ip), vehicle: gum acacia
  T/C: 100 % of control
dose: 200.0 mg/kg/injection, schedule: Q04DX003 (ip), vehicle: gum acacia
  T/C: 92 % of control
dose: 400.0 mg/kg/injection, schedule: Q04DX003 (ip), vehicle: gum acacia
  T/C: 91 % of control

## NCCCCC(NC(=O)CN)C(=O)O (stereo unspecified) (H-Gly-[ξK]-OH)
dose: 100.0 mg/kg/injection, schedule: Q01DX001 (ip), vehicle: saline
  T/C: 101 % of control
dose: 200.0 mg/kg/injection, schedule: Q01DX001 (ip), vehicle: saline
  T/C: 103 % of control
dose: 400.0 mg/kg/injection, schedule: Q01DX001 (ip), vehicle: saline
  T/C: 95 % of control

## Cc1cnc(N(C)CC(=O)O)nc1-c1ccccc1O
dose: 100.0 mg/kg/injection, schedule: Q04DX002 (ip), vehicle: Klucel (hydroxypropylcellulose) (HPC)
  T/C: 96 % of control
dose: 200.0 mg/kg/injection, schedule: Q04DX002 (ip), vehicle: Klucel (hydroxypropylcellulose) (HPC)
  T/C: 89 % of control

## CC(=O)Nc1cc(F)c2c(c1)Cc1cc(F)ccc1-2
dose: 50.0 mg/kg/injection, schedule: Q01DX001 (ip), vehicle: carboxymethylcellulose (CMC)
  T/C: 102 % of control
dose: 100.0 mg/kg/injection, schedule: Q01DX001 (ip), vehicle: carboxymethylcellulose (CMC)
  T/C: 98 % of control
dose: 200.0 mg/kg/injection, schedule: Q01DX001 (ip), vehicle: carboxymethylcellulose (CMC)
  T/C: 93 % of control
dose: 400.0 mg/kg/injection, schedule: Q01DX001 (ip), vehicle: carboxymethylcellulose (CMC)
  T/C: 93 % of control

## c1ccc2c(c1)CNC2
[7]
  T/C: 104 % of control
dose: 200.0 mg/kg/injection, schedule: Q01DX009 (ip), vehicle: saline
  T/C: 94 % of control
[8]
  T/C: 106 % of control
dose: 400.0 mg/kg/injection, schedule: Q01DX009 (ip), vehicle: saline
  T/C: 92 % of control
dose: 400.0 mg/kg/injection, schedule: Q04DX003 (ip), vehicle: saline
  T/C: 97 % of control

## CCN(C(=O)Nc1ccc(OC)cc1)c1ccccc1C
[2]
  T/C: 99 % of control
[3]
  T/C: 96 % of control
[4]
  T/C: 96 % of control
[5]
  T/C: 102 % of control
[6]
  T/C: 96 % of control

## CCC/C=C\COc1ccc(C(=O)OCC)cc1
dose: 100.0 mg/kg/injection, schedule: Q04DX002 (ip), vehicle: other
  T/C: 111 % of control
dose: 200.0 mg/kg/injection, schedule: Q04DX002 (ip), vehicle: other
  T/C: 108 % of control
dose: 400.0 mg/kg/injection, schedule: Q04DX002 (ip), vehicle: other
  T/C: 97 % of control

## N=C(N)c1ccc(OCCCCCOc2ccc(C(=N)N)cc2)cc1
dose: 12.5 mg/kg/injection, schedule: Q01DX Z (oral), vehicle: saline
  T/C: 95 % of control
dose: 25.0 mg/kg/injection, schedule: Q01DX Z (oral), vehicle: saline
  T/C: 95 % of control
dose: 50.0 mg/kg/injection, schedule: Q01DX Z (oral), vehicle: saline
  T/C: 100 % of control
dose: 100.0 mg/kg/injection, schedule: Q01DX Z (oral), vehicle: saline
  T/C: 100 % of control

## CCN1C(=O)CN=C(c2ccccn2)c2cc(Cl)ccc21
dose: 100.0 mg/kg/injection, schedule: Q01DX001 (ip), vehicle: Klucel (hydroxypropylcellulose) (HPC)
  T/C: 95 % of control
dose: 200.0 mg/kg/injection, schedule: Q01DX001 (ip), vehicle: Klucel (hydroxypropylcellulose) (HPC)
  T/C: 101 % of control
dose: 400.0 mg/kg/injection, schedule: Q01DX001 (ip), vehicle: Klucel (hydroxypropylcellulose) (HPC)
  T/C: 96 % of control

## CCN(CC)C(N)=Nc1ccc(NC(=O)c2ccc(C(=O)Nc3ccc(N=C(N)N(CC)CC)cc3)cc2)cc1
dose: 1.8 mg/kg/injection, schedule: Q01DX Z (ip), vehicle: water
  T/C: 113 % of control
dose: 6.5 mg/kg/injection, schedule: Q01DX Z (ip), vehicle: water
  T/C: 180 % of control
dose: 50.0 mg/kg/injection, schedule: Q01DX Z (oral), vehicle: water
  T/C: 101 % of control
dose: 200.0 mg/kg/injection, schedule: Q01DX Z (oral), vehicle: water
  T/C: 107 % of control
dose: 400.0 mg/kg/injection, schedule: Q01DX Z (oral), vehicle: water
  T/C: 93 % of control

## c1ccc(Nc2c3ccccc3nc3ccccc23)cc1
[9]
  T/C: 115 % of control

## O=C(NO)c1cccc(C(=O)NO)n1
dose: 237.0 mg/kg/injection, schedule: Q01DX015 (ip), vehicle: water
  T/C: 113 % of control
dose: 356.0 mg/kg/injection, schedule: Q01DX015 (ip), vehicle: water
  T/C: 114 % of control
dose: 533.0 mg/kg/injection, schedule: Q01DX015 (ip), vehicle: water
  T/C: 104 % of control

## CC1=CC(=O)C=CC1(C)C(Cl)(Cl)Cl (stereo unspecified)
[1]
  T/C: 95 % of control
[9]
  T/C: 100 % of control
[3]
  T/C: 91 % of control
dose: 200.0 mg/kg/injection, schedule: Q04DX003 (ip), vehicle: other
  T/C: 94 % of control
dose: 400.0 mg/kg/injection, schedule: Q04DX003 (ip), vehicle: other
  T/C: 101 % of control

## COc1cc(N(CCO)CCO)ccc1NC(=O)c1ccccc1
dose: 12.5 mg/kg/injection, schedule: Q01DX001 (ip), vehicle: carboxymethylcellulose (CMC)
  T/C: 93 % of control
dose: 12.5 mg/kg/injection, schedule: Q01DX009 (ip), vehicle: Klucel (hydroxypropylcellulose) (HPC)
  T/C: 104 % of control
dose: 12.5 mg/kg/injection, schedule: Q04DX003 (ip), vehicle: Klucel (hydroxypropylcellulose) (HPC)
  T/C: 97 % of control
dose: 25.0 mg/kg/injection, schedule: Q01DX001 (ip), vehicle: carboxymethylcellulose (CMC)
  T/C: 98 % of control
dose: 25.0 mg/kg/injection, schedule: Q01DX009 (ip), vehicle: Klucel (hydroxypropylcellulose) (HPC)
  T/C: 104 % of control
dose: 25.0 mg/kg/injection, schedule: Q04DX003 (ip), vehicle: Klucel (hydroxypropylcellulose) (HPC)
  T/C: 95 % of control
dose: 50.0 mg/kg/injection, schedule: Q01DX009 (ip), vehicle: Klucel (hydroxypropylcellulose) (HPC)
  T/C: 97 % of control
dose: 50.0 mg/kg/injection, schedule: Q04DX003 (ip), vehicle: Klucel (hydroxypropylcellulose) (HPC)
  T/C: 97 % of control

## C[n+]1ccccc1C(=O)O (tested in a mixture with another compound)
[7]
  T/C: 101 % of control
[8]
  T/C: 98 % of control

## O=C(O)c1cnc[nH]1
[1]
  T/C: 100 % of control
[3]
  T/C: 92 % of control
[5]
  T/C: 94 % of control
